In brackets after ≈: the same amount, converted by molar mass. Like-named read-outs stand apart in the source and are kept apart here.

Data set [1] can be described thus: solubility profile at room temperature in organic solvents. The class given is physicochemical. From the text: Optionally, water can be added to the suspension earlier than the filtration. Further, this filtration step introduces an additional purification step.
A short description of data set [2]: polymorphic form after one year storage (XRD and IR). It counts as physicochemical. The settings on record: one year at room temperature and ambient atmosphere conditions. From the text: X-ray Powder Diffraction (XRD). The XRD diffractograms were obtained using a RX SIEMENS D5000 diffractometer with a vertical goniometer, a copper anodic tube, and radiation CuKα, λ=1, 54056 Á.
Infrared Spectra (IR). Fourier transform IR spectra were acquired on a Thermo Nicolet Nexus spectrometer, and polymorphs were characterized in potassium bromide pellets.
Analytical data: XRD: Form A, see FIG. 1; IR: see FIG. 2; DSC: see FIG. 7. Analytical data of the compound after one year at room temperature and ambient atmosphere conditions (XRD and IR): Form A.
Analytical data: XRD: Form B, see FIG. 3; DSC: see FIG. 8. Analytical data of the compound after one year at room temperature and ambient atmosphere conditions (XRD and IR): Form B.

As for `CSC(C(N)=O)c1cccc(C(=O)c2ccccc2)c1N` (stereo not drawn) [compound (IV) Form B, 2-amino-3-benzoyl-α-(methylthio)benzeneacetamide], the solubility in data set [1] (acetonitrile, organic solvent or mixture, acetonitrile (reaction mixture solvent), read-out: solubility in acetonitrile) is approximately 5.9 mg/mL (≈ 19.6 mM). Also, in data set [1] (tetrahydrofuran, room temperature), the solubility in tetrahydrofuran result is “approx. 33 mg/mL”. For the same compound, in data set [2] (listed as Example 5), the “crystalline form after one year (XRD and IR)” value is on record as “Form B”.
On to `CSC(C(N)=O)c1cccc(C(=O)c2ccccc2)c1N` (stereo not drawn) [compound (IV) Form A, 2-amino-3-benzoyl-α-(methylthio)benzeneacetamide], for which the solubility in data set [1] (1:1 mixture of tetrahydrofuran/water, aqueous with cosolvent or surfactant or cyclodextrin, 1:1 tetrahydrofuran/water, room temperature, read-out: solubility in a 1:1 mixture of tetrahydrofuran/water) was approximately 50 mg/mL (≈ 166 mM); in data set [1] (tetrahydrofuran, organic solvent or mixture, tetrahydrofuran, room temperature, read-out: solubility in tetrahydrofuran), approximately 50 mg/mL (≈ 166 mM). Moreover, the “crystalline form after one year (XRD and IR)” value in data set [2] (listed as Example 4) is on record as “Form A”.

For the origin of these results see patent publication US20090312575A1, “Process For Preparing A Benzoylbenzeneacetamide Derivative” (Medichem, S.A., priority 2008, published 2009).
